Measurements taken from patent US20090104154A1, “Composition and method for killing of tumours” (COMMONWEALTH SCIENTIFIC AND INDUSTRIAL RESEARCH ORGANISATION, priority 2002, published 2009).

How the values were obtained:
[1] = cited from earlier work
[2] = test system: intraprostatic RM-1 tumours; experiment: GDEPT ± lipid on intraprostatic RM-1 tumours; type: in vivo, mouse; conditions: day 18; relative to the equivalent non-fludarabine treated tumours; fludarabine 600 mg/m^2/day ip
Protocol: In order to mimic clinical prostate cancer in an immunocompetent animal model, on day 1 RM-1 tumours were established in the prostate of C57BL/6 mice by intraprostatic injection of 5×10^3 RM-1 cells (˜50 μl cell suspension) per mouse. On day 4, these mice received an intraprostatic injection of 1×10^10 VP/tumour of OAdV220, either alone or formulated with 10 μM CS87 (see groups below). Fludarabine was then administered ip at 600 mg/m^2/day to appropriate groups from days 5-10. On day 6, pseudometastases were induced in the lungs by intravenous injection of 2.5×10^5 RM-1 cells (˜50 μl cell suspension) per mouse. Due to the limitations of surgery only 30 intraprostate injections can be performed per day. The experiment was therefore set up on 4 different days, although care was taken not to upset the timing of the experiment. The mice were weighed twice weekly, and sacrificed on day 18. Tissues were harvested for analysis (prostate volume, prostate weights).
Treatment groups were as follows:
Group A OAdV220 alone±fludarabine
Group B Nil treatment (storage buffer)±fludarabine
Group C OAdV220 plus […] CS87±fludarabine
Group D 10 μM CS87 alone±fludarabine

PC3 tumours = experiment: GDEPT on subcutaneous human PC3 tumours in nude mice; type: in vivo, mouse
Protocol: The ability of the PNP-based GDEPT system to suppress tumour growth in vivo was tested using subcutaneous human PC3 tumours grown in nude mice. Once the tumours were established (see example 1), on day 0 two groups of mice received one intratumoural injection of 1×10^10 VP of OAdV220. Two further groups received virus storage buffer only. Following this treatment all animals in one of the virus groups and all animals in one of the no-virus groups received a daily intraperitoneal (ip) injection of fludarabine (75 mg/m^2/day) for the next five days. Animal weights and tumour volumes were recorded twice weekly. The vector only group was compared to the nil virus, nil prodrug group. The group that received vector plus fludarabine was compared with the group that received fludarabine only. The OAdV220 vector alone caused a 30% reduction in tumour growth. However, the overall tumour growth suppression was increased to 71% when virus was used in conjunction with Fludarabine.
The cut off for response was arbitrarily taken as a tumour volume of 600 mm^3, half the maximum tumour volume (1200 mm^3) allowed before mice had to be culled because of tumour burden. By day 25, 13 of 14 tumours treated with OAdV220 plus fludarabine were in the responder category compared with 6 of 9 that received fludarabine only, and 9 of 12 which received virus only. […]

RM-1 tumours = experiment: GDEPT on subcutaneous tumours from RM-1 cells pre-transduced in vitro; type: in vivo, mouse; conditions: day 15; Fludarabine alone 600 mg/m^2/day compared with nil treatment
Protocol: RM-1 cells (3×10^7) were transduced in culture with 1×10^3 or 1×10^2 VP/cell of OAdV220 or mock transduced with virus dilution buffer on day −1. On day 0, 12 mice/group were subcutaneously injected with 2.5×10^5 virus- or mock-transduced cells. Fludarabine was then administered from days 1-5 at 600 mg/m^2/day. Tumour volume and animal survival were monitored three times per week. A line of best fit was generated for each treatment curve and the ability to suppress tumour growth or increase animal survival was determined from the days taken to reach the midpoint of tumour growth or animal survival respectively.

Row | Compound | potency as a growth inhibitor relative to 6 MP [1] [fold] | decrease in tumour volume [2] [%] | decrease in tumour weight [2] [%] | responding tumours (tumour volume below 600 mm^3) (PC3 tumours; day 25) | responding tumours (tumour volume below 600 mm^3) (PC3 tumours; day 53) | reduction in mean tumour volume (RM-1 tumours) [%]
1 | Nc1nc(F)nc2nc[nH]c12 [2FA, 2-fluoroadenine] | ~100 |  |  |  |  | 
2 | Nc1nc(F)nc2c1ncn2[C@@H]1O[C@H](CO)[C@@H](O)[C@@H]1O [Fludarabine, fludarabine] |  | 12 | 17 | 6 of 9 | 0/5 | 17
